# Experimental data reported in paper PMC10176470, “Engaging a Non-catalytic Cysteine Residue Drives Potent and Selective Inhibition of Caspase-6” (Journal of the American Chemical Society, 2023).
# Experiments:
# Format in all cases: cell-based
# [1] = target: proteins of HEK293T cells transiently overexpressing caspase-6 (Homo sapiens, UniProt O75874); conditions: exp_ref Probe; protein IDH1 (O75874); analysis C6
# [2] = target: proteins of HEK293T cells transiently overexpressing caspase-6 (Homo sapiens, UniProt P02768); conditions: Probe; protein ALB P02768
# [3] = target: proteins of HEK293T cells transiently overexpressing caspase-6 (Homo sapiens, UniProt P04183); conditions: exp_ref Probe; protein TK1 (P04183); analysis C6
# [4] = target: proteins of HEK293T cells transiently overexpressing caspase-6 (Homo sapiens, UniProt P12268); conditions: exp_ref Probe; protein IMPDH2 (P12268); analysis C6
# [5] = target: proteins of HEK293T cells transiently overexpressing caspase-6 (Homo sapiens, UniProt P12956); conditions: protein XRCC6 (P12956)
# [6] = target: proteins of HEK293T cells transiently overexpressing caspase-6 (Homo sapiens, UniProt P17987); conditions: protein TCP1 (P17987)
# [7] = target: proteins of HEK293T cells transiently overexpressing caspase-6 (Homo sapiens, UniProt P21333)
# [8] = target: proteins of HEK293T cells transiently overexpressing caspase-6 (Homo sapiens, UniProt P35232); conditions: Probe; protein PHB P35232
# [9] = target: proteins of HEK293T cells transiently overexpressing caspase-6 (Homo sapiens, UniProt P42704); conditions: exp_ref Probe; protein LRPPRC (P42704); analysis C6
# [10] = target: proteins of HEK293T cells transiently overexpressing caspase-6 (Homo sapiens, UniProt P46379); conditions: exp_ref Probe; protein BAG6 (P46379); analysis C6
# [11] = target: proteins of HEK293T cells transiently overexpressing caspase-6 (Homo sapiens, UniProt P46782); conditions: protein RPS5 (P46782)
# [12] = target: T1, proteins of HEK293T cells transiently overexpressing caspase-6 (Homo sapiens, UniProt P54577); conditions: protein YARS (P54577), analysis C6
# T1 sequence (P54577 1-528): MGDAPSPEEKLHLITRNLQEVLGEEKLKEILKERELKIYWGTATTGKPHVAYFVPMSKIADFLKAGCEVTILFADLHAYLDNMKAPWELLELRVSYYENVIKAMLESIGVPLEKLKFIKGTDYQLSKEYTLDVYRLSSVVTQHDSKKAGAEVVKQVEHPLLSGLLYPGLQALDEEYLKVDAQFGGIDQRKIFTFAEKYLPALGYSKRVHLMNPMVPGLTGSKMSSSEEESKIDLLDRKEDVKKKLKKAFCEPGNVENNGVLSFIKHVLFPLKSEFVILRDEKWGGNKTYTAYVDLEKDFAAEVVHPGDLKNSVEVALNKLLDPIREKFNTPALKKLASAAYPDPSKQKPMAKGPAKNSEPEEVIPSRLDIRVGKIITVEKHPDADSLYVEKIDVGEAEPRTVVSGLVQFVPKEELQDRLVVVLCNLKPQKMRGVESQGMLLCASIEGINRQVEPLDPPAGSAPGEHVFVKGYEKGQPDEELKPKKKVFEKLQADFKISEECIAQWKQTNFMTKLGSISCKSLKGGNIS
# [13] = target: proteins of HEK293T cells transiently overexpressing caspase-6 (Homo sapiens, UniProt P55072); conditions: exp_ref Probe; protein VCP (P55072); analysis C6
# [14] = target: proteins of HEK293T cells transiently overexpressing caspase-6 (Homo sapiens, UniProt P62263); conditions: exp_ref Probe; protein RPS14 (P62263); analysis C6
# [15] = target: proteins of HEK293T cells transiently overexpressing caspase-6 (Homo sapiens, UniProt P62280); conditions: protein RPS11 (P62280), analysis C6
# [16] = target: proteins of HEK293T cells transiently overexpressing caspase-6 (Homo sapiens, UniProt Q01082); conditions: Probe; protein SPTBN1 Q01082
# [17] = target: proteins of HEK293T cells transiently overexpressing caspase-6 (Homo sapiens, UniProt Q12906); conditions: exp_ref Probe; protein ILF3 (Q12906); analysis C6
# [18] = target: proteins of HEK293T cells transiently overexpressing caspase-6 (Homo sapiens, UniProt Q14166); conditions: exp_ref Probe; protein TTLL12 (Q14166); analysis C6
# [19] = target: proteins of HEK293T cells transiently overexpressing caspase-6 (Homo sapiens, UniProt Q14444); conditions: exp_ref Probe; protein CAPRIN1 (Q14444); analysis C6
# [20] = target: proteins of HEK293T cells transiently overexpressing caspase-6 (Homo sapiens, UniProt Q16531); conditions: Probe; protein DDB1 Q16531
# Sequence of proteins of HEK293T cells transiently overexpressing caspase-6 (Homo sapiens, UniProt P17987) (P17987 whole entry): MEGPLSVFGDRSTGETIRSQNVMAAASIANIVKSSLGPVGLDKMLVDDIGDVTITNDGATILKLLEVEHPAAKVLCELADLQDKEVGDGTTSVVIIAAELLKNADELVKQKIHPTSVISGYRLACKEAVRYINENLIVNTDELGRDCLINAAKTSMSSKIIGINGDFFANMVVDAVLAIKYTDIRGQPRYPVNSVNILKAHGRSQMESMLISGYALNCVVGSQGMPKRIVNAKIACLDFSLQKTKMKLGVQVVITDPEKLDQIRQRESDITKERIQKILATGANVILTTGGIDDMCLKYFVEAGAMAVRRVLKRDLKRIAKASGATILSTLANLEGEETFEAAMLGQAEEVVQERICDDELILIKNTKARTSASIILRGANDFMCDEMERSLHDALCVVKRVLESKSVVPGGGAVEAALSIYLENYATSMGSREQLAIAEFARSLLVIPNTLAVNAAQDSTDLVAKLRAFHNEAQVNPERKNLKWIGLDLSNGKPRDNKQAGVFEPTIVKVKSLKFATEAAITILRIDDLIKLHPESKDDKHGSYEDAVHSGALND
# Sequence of proteins of HEK293T cells transiently overexpressing caspase-6 (Homo sapiens, UniProt P21333) (P21333 whole entry): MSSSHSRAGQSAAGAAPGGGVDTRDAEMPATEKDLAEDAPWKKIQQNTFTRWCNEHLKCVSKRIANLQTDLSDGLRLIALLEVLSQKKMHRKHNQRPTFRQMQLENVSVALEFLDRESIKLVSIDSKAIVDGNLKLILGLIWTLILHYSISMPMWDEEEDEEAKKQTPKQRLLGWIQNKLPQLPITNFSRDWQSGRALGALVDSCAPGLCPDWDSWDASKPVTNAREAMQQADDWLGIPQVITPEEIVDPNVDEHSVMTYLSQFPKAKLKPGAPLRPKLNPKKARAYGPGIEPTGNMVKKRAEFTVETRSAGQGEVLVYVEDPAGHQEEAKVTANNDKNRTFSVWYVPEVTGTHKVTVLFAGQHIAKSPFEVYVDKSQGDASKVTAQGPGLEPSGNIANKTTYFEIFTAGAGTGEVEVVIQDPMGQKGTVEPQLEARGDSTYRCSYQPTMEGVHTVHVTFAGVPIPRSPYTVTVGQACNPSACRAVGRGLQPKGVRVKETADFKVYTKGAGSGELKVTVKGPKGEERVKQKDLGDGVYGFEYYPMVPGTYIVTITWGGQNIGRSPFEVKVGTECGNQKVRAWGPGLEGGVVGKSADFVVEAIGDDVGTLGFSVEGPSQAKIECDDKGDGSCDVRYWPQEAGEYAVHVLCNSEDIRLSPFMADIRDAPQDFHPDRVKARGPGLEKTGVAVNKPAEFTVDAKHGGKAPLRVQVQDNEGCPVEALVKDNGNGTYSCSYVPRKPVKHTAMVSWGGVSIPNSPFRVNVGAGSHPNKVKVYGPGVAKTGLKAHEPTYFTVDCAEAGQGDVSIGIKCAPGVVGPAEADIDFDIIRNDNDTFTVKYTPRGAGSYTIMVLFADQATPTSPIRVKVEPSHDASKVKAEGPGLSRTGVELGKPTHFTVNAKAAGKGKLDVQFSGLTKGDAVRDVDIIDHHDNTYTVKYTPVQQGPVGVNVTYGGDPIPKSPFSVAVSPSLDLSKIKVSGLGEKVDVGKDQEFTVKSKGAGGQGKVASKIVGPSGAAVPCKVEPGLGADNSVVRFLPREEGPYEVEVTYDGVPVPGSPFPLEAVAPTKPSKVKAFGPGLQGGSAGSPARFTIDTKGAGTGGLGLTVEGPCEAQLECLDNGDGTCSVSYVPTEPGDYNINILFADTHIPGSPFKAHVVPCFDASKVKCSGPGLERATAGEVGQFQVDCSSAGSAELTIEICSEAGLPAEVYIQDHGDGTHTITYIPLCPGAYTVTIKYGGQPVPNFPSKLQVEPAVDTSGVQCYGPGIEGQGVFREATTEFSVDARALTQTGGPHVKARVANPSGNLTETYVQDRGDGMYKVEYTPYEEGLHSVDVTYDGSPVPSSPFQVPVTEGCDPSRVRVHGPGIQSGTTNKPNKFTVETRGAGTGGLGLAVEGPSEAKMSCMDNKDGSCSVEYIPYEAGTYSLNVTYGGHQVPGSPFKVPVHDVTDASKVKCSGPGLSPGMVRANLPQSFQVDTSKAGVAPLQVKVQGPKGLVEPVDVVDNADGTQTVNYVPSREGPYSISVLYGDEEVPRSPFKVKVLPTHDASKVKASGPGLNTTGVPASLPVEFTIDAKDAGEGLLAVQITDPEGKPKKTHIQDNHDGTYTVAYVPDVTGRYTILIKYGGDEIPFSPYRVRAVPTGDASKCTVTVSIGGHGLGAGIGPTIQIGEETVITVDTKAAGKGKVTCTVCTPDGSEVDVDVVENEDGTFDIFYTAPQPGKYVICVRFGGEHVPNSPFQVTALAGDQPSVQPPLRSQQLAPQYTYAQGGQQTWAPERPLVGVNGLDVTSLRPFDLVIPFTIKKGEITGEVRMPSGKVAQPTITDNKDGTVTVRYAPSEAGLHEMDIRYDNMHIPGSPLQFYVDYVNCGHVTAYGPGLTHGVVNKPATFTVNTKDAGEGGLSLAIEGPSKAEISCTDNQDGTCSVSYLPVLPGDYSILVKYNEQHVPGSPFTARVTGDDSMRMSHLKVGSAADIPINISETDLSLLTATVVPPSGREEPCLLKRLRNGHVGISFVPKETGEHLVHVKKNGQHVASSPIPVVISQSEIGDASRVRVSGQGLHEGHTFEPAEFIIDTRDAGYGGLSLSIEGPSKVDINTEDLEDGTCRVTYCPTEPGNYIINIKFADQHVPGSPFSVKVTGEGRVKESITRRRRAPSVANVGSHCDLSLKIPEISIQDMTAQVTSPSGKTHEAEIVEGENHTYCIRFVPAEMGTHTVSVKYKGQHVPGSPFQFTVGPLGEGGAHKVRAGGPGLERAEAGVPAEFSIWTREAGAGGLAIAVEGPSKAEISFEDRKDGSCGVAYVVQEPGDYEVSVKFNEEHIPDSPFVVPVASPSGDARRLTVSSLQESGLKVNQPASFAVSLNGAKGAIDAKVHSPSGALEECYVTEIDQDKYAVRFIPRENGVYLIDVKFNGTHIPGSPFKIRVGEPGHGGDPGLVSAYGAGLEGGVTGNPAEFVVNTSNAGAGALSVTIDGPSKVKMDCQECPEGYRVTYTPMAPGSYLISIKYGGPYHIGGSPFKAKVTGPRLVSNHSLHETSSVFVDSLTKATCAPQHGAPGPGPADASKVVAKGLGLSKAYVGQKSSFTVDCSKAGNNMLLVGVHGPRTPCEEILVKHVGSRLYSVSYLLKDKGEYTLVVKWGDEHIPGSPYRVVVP
# Sequence of proteins of HEK293T cells transiently overexpressing caspase-6 (Homo sapiens, UniProt P12956) (P12956 whole entry): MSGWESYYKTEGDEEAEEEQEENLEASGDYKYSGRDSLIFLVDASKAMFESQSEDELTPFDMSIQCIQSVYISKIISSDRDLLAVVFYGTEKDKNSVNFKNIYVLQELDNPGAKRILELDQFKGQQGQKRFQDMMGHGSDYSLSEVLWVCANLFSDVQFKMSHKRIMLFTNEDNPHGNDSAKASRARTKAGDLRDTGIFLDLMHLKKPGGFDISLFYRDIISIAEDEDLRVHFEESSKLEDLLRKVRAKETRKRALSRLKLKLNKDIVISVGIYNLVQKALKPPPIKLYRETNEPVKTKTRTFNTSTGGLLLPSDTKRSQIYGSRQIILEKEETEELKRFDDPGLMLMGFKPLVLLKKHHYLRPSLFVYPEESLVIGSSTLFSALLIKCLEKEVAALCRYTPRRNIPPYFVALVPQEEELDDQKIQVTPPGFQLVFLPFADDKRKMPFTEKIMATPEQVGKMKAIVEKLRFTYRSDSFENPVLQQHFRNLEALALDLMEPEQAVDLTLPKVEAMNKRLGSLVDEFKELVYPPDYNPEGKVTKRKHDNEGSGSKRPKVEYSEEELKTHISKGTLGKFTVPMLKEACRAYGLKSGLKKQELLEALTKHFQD
# Sequence of proteins of HEK293T cells transiently overexpressing caspase-6 (Homo sapiens, UniProt O75874) (O75874 whole entry): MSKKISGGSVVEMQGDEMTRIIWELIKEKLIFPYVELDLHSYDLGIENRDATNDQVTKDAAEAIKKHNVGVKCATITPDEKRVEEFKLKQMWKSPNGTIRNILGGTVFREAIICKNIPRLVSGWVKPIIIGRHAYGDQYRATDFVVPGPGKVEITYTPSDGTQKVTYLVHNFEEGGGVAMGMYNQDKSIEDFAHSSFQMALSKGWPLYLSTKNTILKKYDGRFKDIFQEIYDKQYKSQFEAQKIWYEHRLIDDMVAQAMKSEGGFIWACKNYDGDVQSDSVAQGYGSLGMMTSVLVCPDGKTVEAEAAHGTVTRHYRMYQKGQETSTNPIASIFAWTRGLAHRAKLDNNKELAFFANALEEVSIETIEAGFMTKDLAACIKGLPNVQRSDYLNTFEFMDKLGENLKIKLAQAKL
# Sequence of proteins of HEK293T cells transiently overexpressing caspase-6 (Homo sapiens, UniProt P02768) (P02768 25-609): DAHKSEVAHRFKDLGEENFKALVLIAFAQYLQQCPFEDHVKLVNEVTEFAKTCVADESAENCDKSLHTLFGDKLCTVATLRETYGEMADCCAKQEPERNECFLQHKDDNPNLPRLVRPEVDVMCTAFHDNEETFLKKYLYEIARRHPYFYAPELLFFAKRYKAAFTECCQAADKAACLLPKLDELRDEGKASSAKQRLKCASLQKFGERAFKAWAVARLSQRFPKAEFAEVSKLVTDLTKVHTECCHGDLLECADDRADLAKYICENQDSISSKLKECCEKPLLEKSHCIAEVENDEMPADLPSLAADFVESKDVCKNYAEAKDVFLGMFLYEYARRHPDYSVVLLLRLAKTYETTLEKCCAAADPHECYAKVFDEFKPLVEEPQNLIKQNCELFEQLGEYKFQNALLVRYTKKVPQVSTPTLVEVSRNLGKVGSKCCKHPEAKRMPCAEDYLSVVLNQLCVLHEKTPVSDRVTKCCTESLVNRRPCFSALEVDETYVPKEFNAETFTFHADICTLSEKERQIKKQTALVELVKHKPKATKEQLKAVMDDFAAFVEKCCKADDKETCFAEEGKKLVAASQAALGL
# Sequence of proteins of HEK293T cells transiently overexpressing caspase-6 (Homo sapiens, UniProt P04183) (P04183 whole entry): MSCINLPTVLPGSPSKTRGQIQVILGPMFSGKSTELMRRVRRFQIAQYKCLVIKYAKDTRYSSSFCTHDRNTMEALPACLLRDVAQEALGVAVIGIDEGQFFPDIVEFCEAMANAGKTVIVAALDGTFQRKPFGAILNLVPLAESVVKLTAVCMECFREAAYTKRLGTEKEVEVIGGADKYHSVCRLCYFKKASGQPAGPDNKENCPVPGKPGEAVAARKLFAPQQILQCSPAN
smiles,measurement,setting,value
C#CCOc1ccc([C@@H]2C[C@@H](C(=O)Nc3ccc(OC(F)(F)F)cc3)CN(S(=O)(=O)C=C)C2)cc1 (relative stereo) [13-t],enrich.exp.med,[1],-0.2162
same,enrich.exp.med,[2],-8.362
same,enrich.exp.med,[3],1.0337
same,enrich.exp.med,[4],0.7134
same,enrich.exp.med,"[5]; exp_ref Probe, analysis C6",1.036
same,enrich.exp.med.lin,[5],2.05
same,enrich.exp.med.log2,[5],1.036
same,enrich.exp.med,"[6]; exp_ref Probe, analysis C6",0.8619
same,enrich.exp.med.lin,[6],1.8174
same,enrich.exp.med.log2,[6],0.8619
same,enrich.exp.med,"[7]; Probe, protein FLNA P21333",-0.9107
same,enrich.exp.med.lin,[7]; protein FLNA (P21333),0.5319
same,enrich.exp.med.log2,[7]; protein FLNA (P21333),-0.9107
same,enrich.exp.med,[8],-1.532
same,enrich.exp.med,[9],0.2022
same,enrich.exp.med,[10],0.9575
same,enrich.exp.med.lin,[11],3.054
same,enrich.exp.med.log2,[11],1.611
same,enrich.exp.med,"[11]; exp_ref Probe, analysis C6",1.611
same,enrich.exp.med.lin,[12]; Expt Probe,10.7591
same,enrich.exp.med.log2,[12]; Expt Probe,3.427
same,enrich.exp.med,[12]; exp_ref Probe,3.427
same,enrich.exp.med,[13],-0.3231
same,enrich.exp.med,[14],-0.03314
same,enrich.exp.med.lin,[15]; Expt Probe,5.0581
same,enrich.exp.med.log2,[15]; Expt Probe,2.3386
same,enrich.exp.med,[15]; exp_ref Probe,2.3386
same,enrich.exp.med,[16],-1.031
same,enrich.exp.med,[17],0.1427
same,enrich.exp.med,[18],-0.1545
same,enrich.exp.med,[19],0.06778
same,enrich.exp.med,[20],-0.5354
